Columns and labels:
[1] = tested on: bone marrow mononuclear cells of mice; assay: Induction of RA activity in mouse bone marrow (QPCR of RA target genes); type: in vivo; conditions: intravenous 40 μg/kg once per day for two days, versus vehicle
Procedure: Human and mouse bone marrow stromal cells express CYP26 enzymes and Cyp26B1 is highly inducible by RA in these cells. This experiment tests whether exposure of bone marrow to a CYP26 inhibitor is sufficient to raise RA levels in the bone marrow and induce RA-target genes. Mice (8-12 week old) were given intravenous injections (tall vein) on two consecutive days (once per day) of CYP26 inhibitor compound dissolved in 0.9% sodium chloride/0.1% DMSO. Animals were given a dose of 40 μg/kg of inhibitor, or an equal volume of vehicle alone. The morning after the second injection, animals were sacrificed, and bone marrow mononuclear cells were harvested from femurs using Lympholyte-mammal reagent (available from Cedarlane, Burlington, Canada). RNA was then extracted from isolated cells, and RA target gene expression assessed by qPCR.

[2] = tested on: MC3T3-E1 cells; assay: Osteoblast cell differentiation, MC3T3-E1 cells; type: cell-based, mouse
Procedure: These experiments are used to test the ability of CYP26 inhibitors to reduce or block osteoblast differentiation in vitro using a cell culture model. MC3T3-E1 mouse calvarias pre-osteoblasts (available from the American Type Culture Collection) were cultured in MEM-α without ascorbic acid. To induce osteoblast differentiation and matrix mineralization, cells are switched to medium containing ascorbic acid (50 μg/ml) and phosphate (10 mM β-glycerophosphate) and cultured for up to 21 days while changing media every 2-3 days. Cells are also treated with varying concentrations of RA or CYP26 inhibitor compound to assess effects on osteoblast differentiation. At the end of the treatment period, cells in 24-well plates and fixed in 70% ethanol, and stained with Alizarin red (40 mM pH 4.2) to visualize calcified extracellular matrix, indicative of osteoblast differentiation. Stained wells were photographed under a Leica MZ95 dissecting microscope. Other cells grown in 6 well plates are used for RNA extraction, and qPCR analysis of bone differentiation markers and RA target genes.

[3] = tested on: MV4-11 cells; assay: Leukemia cell apoptosis (FITC-Annexin V), MV4-11 cells; type: cell-based, human; conditions: 0.1 μM RA plus 1 μM compound, stromal cells present, 48 hours
Procedure: RA can also induce apoptosis is a variety of cell types, including AML cells. This experiment tests CYP26 inhibitor compounds for their ability to rescue RA-induced apoptosis in the presence of bone marrow stromal cells. For these experiments MV4-11 AML cells are plated as above, in the presence and absence of stromal monolayers. Cells are then treated for 48 hours with RA (0.1 μM). After the treatment period, cells are stained with a FITC-labeled annexin V antibody (available from Thermofisher Scientific), which binds to the surface of apoptotic cells. Cells are then sorted by FACS in a as above and data are expressed as percentage of annexin V^+ (apoptotic) cells.

[4] = tested on: Cyp26a1-luc construct in MCF-7 cells; assay: Retinoid activity assay, Cyp26a1-luc reporter in MCF-7 cells; type: cell-based; conditions: for Rel. Luciferase Activity (mean): 24 hours, firefly relative to Renilla luciferase
Description: This retinoid activity assay measures the ability of test compounds to induce expression of a transiently transfected RA sensitive reporter construct. In this assay, MCF-7 cells are transfected with a construct comprising an upstream promoter of the CYP26A1 gene containing 2 RA response elements driving expression of firefly luciferase (pCYP26A1-luc). Since CYP26A1 is highly inducible by RA in these cells, this construct serves as a sensitive reporter of retinod-like transcriptional activity.
MCF-7 cells were maintained in a RPMI-1640 medium containing 10% FBS. Exponentially growing cells were harvested by incubation in trypsin. Cells were then collected and plated in 24-well plates at 50,000 cells/well. Once cells reached 80-90% confluence (e.g., the next day), cells were transfected with two plasmids. The first plasmid was CYP26A1-luc construct (375 ng). The second plasmid was a control plasmid comprising the Renilla luciferase gene driven by constitutive thymidine kinase promoter (pRL-tk) (25 ng). Transfection was performed using FuGene 6 transfection reagent (Promega) with a 1:3 ratio of DNA:FuGene. 24 hours after transfection, cells were treated with test compounds diluted in DMSO in triplicate at 0.1, 1 and 10 μM final concentrations. As a positive control for reporter activation, cells were also treated with RA diluted in DMSO at the same concentrations listed above. DMSO treatment alone served as a negative control. After 24 hours of treatment, cells were harvested in passive lysis buffer (Promega) and luciferase activity in cell lysates were read using a luminometer. Data are expressed as the activity of firefly luciferase relative to Renilla luciferase (see Tables 3-5). For CYP26A1 inhibitor compounds, no activation of the reporter was detected, while the related retinoid-like compound induces luciferase expression.

[5] = tested on: RA target genes in primary human bone marrow cells; assay: RA target gene expression in primary human bone marrow stromal cells; type: cell-based; conditions: co-treatment with RA
[6] = tested on: THP-1 cells; assay: Leukemia cell colony formation, THP-1 cells; type: cell-based, human; conditions: RA plus compound, culture with stromal cells
Procedure: This experiment is used to test the long-term proliferative ability of hematopoietic stem and progenitor cells as well as leukemic stem cells. Colony forming ability in long term cultures is indicative of stem/progenitor cell activity. […] For these experiments, bone marrow stromal and leukemic cell co-cultures are prepared as described above and treated with RA and/or CYP26 inhibitor compound for 72 hours. After the treatment period, leukemic cells are collected and re-plated in semi-solid methylcellulose medium to assess colony forming ability. 500 leukemic cells are plated per dish in 35 mm plates in 1.1 ml of MethoCult (available from STEMCELL Technologies, Vancouver, Canada). Triplicate plates are prepared per treatment, and cultures are grown for 14-16 days in a CO2 incubator. After the culture period colonies are counted under a dissecting microscope.

[7] = target: CYP26B1 (Homo sapiens (Human), UniProt Q9NR63); assay: Cell-based inhibitor assay ([3H]-RA metabolism), CYP26B1 stably transfected HeLa cells
Sequence of CYP26B1 (Q9NR63 whole entry): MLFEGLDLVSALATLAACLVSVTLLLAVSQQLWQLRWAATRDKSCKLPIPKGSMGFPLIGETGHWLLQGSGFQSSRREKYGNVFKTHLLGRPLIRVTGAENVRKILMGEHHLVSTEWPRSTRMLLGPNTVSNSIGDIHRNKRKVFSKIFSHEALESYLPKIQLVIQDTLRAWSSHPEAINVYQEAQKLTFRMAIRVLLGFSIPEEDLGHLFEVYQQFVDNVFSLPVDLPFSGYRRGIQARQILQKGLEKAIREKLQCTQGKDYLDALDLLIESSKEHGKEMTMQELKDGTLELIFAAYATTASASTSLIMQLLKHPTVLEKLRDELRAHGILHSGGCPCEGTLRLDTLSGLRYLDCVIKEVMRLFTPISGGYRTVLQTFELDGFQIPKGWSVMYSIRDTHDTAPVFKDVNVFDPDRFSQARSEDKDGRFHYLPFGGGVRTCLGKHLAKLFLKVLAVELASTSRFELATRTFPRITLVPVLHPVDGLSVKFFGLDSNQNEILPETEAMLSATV
Procedure: CYP26A1 or CYP26B1 stably transfected HeLa cells were maintained in Minimum Essential Medium (MEM) containing 10% fetal bovine serum (FBS) and 100 μg/mL hygromycin. Exponentially growing cells were harvested by incubation in trypsin. Cells were then collected and re-plated in 48-well culture plates at 5×10^5 cells in 0.2 mL of culture medium containing 0.05 μCi [^3H]-RA in the presence or absence of increasing concentrations of a test compound. The test compounds were diluted in dimethyl sulfoxide (DMSO) and then added in duplicate to wells at 0.01, 0.1, 1, 10 and 100 μM final concentration. As a positive control for inhibition of RA metabolism, cells were also incubated with ketoconazole at the same concentrations as above. Cells were incubated for 3 hours at 37° C. Retinoids were then extracted using the procedure of Bligh, et al., (1959), Canadian Journal of Biochemistry 37, 911-917, which was modified by using dichloromethane instead of chloroform. Each sample's water soluble radioactivity level was quantified using a β-scintillation counter (using Ecolume scintillation fluid, available from MP Biomedicals of Solon, Ohio, USA). IC50 values represented the concentration of inhibitor required to inhibit all trans-RA metabolism by 50%, and were derived from log transformed data.

Selectivity CYP26B1 versus CYP26A1 ([7]; HeLa cell-based assay): highly selective towards CYP26B1
IC50 ([7]; HeLa cell-based assay, 3 hours): 200 nM
CYP26B1 Rel. to keto ([7]; IC50 relative to ketoconazole): 0.02
Structure (SMILES): CC(C)(C)c1cccc(-c2cc3cc(/C=C/C(=O)O)ccc3[nH]2)c1 [Compound 026]
Expression of Cyp26a1 and Crabp2 in bone marrow mononuclear cells [1]: both induced
Bglap and Ibsp expression ([2]; 10 nmol RA plus 1 μM compound): suppressing Bglap and Ibsp expression
Bglap and Ibsp expression ([2]; 10 μM compound, osteogenic medium): blocked their expression
Cyp26b1 gene expression ([2]; compared with controls): dramatic upregulation of Cyp26b1
Calcified matrix (alizarin red staining) ([2]; osteogenic medium, 21 days, increasing concentrations): reduced by the presence of compound 026 in a dose-dependent manner
RA-induced apoptosis (Annexin V positive cells) [3]: rescued by the addition of compound 026
Agonist activity in luciferase reporter transactivation experiment [4]: did not show agonist activity
Rel. Luciferase Activity (mean) ([4]; 0.1 μM): .0522
Rel. Luciferase Activity (mean) ([4]; 1 μM): .0472
Rel. Luciferase Activity (mean) ([4]; 10 μM): .0678
Expression of RA target genes in response to RA, co-treatment [5]: greatly enhanced and prolonged expression of RA target genes
Colony forming units [6]: rescued the effects of RA and decreased colony forming units
CYP26B1 inhibition compared with ketoconazole ([7]; FIG. 2): dramatically increased inhibition of CYP26B1 enzyme activity compared with ketoconazole

— patent US11358933B2, “Compounds and methods for inhibiting CYP26 enzymes” (Queen's University at Kingston, priority 2017, dated 2022)
